Data published in patent publication US9822136B2, “Chemical inhibitors of sebocyte function” (priority 2016, dated 2017).
“Also recorded” adds a separate entry of the source.

What was measured:
[1] = target: T1, cloned hTRPM8 channel (Homo sapiens, UniProt Q7Z2W7); assay: TRPM8 activation, FLIPR calcium assay in CHO cells; type: cell-based; conditions: for Relative Potency to I-menthol: TRPM8 EC50 relative to I-menthol
T1 construct: host or cells: CHO cells
Experimental: The in vitro effects of test articles were first evaluated on cloned hTRPM8 channel. […] The test cells were Chinese Hamster Ovary (CHO) cells stably transfected with human TRPM8 cDNAs. […] Substances were evaluated at 8 concentrations (0.03 to 300 μM) with n=4 replicates per determination. For Fluorescence Imaging Plate Reader ([…]″) assay, cells were plated in 384-well black wall, flat clear-bottom microtiter plates (Type: BD Biocoat Poly-D-Lysine Multiwell Cell Culture Plate) at approximately 30,000 cells per well. Cells were incubated at 37° C. overnight to reach a near confluent monolayer appropriate for use in a fluorescence assay. The test procedure was to remove the growth media and to add 40 μL of HBPS containing Fluo-8 for 30 minutes at 37° C. 10 μL of test compound, vehicle, or control solutions in HBPS were then added to each well and read for 4 min using a Fluo-8 calcium kit and the […]″ instrument (Molecular Devices, Sunnyvale, California). […] J. Neurosci.
Concentration-response data were analysed via the FLIPR Control software that is supplied with the FLIPR System (MDS-AT) and fitted to a Hill equation of the following form: Response=Base+(Max−Base)/1+(xhalf/x)^rate, where: “Base” is the response at low concentrations of test compound; “Max” is the maximum response at high concentrations; “xhalf” is the EC50 (the concentration of test compound producing half-maximal activation); and “rate” is the Hill coefficient. Nonlinear least squares fits were made assuming a simple one-to-one binding model.

[2] = test system: zygomatic/forehead skin; assay: Cooling sensation after application to zygomatic/forehead skin; type: in vivo, human; conditions: for Sensory Quality / Duration / Onset: 20 mg/mL in distilled water; for Duration: offset minus onset; for Onset: time to reach 2 units of coolness; for Duration of localized cooling and refreshing sensations: forehead skin, 20 mg/mL, 0.08 to 0.15 mL
Experimental: When certain Dapa compounds are applied to the zygomatic and forehead skin, sensations of coolness/cold are felt and can be graded in intensity [Wei. 1-Di-isopropyl-phosphinoyl-alkanes as topical agents for the treatment of sensory discomfort. US 2015/0164924]. For example, one can rate the sensation as 0, 1, 2, or 3 with: 0 as no change; 1 as slight coolness, or cold; 2 as clear-cut signal of coolness or cold; and 3 as strong cooling or cold. The intervals for recording are 5 to 15 minutes, until at least two successive zeroes are obtained. The onset of drug action is taken as the time to reach 2 units of coolness intensity. The active compounds here, e.g, 1-7 produce cooling with 1 min after application. The duration of Dapa-compound action is defined as the offset time minus the onset time. The offset of drug action is defined here as the time when coolness intensity drops below 2, after previously surpassing 2 units.
Test compounds were applied to the skin of the forehead and zygomatic using cotton gauze (0.4 g, rectangular, 50 mm×60 mm; from CS-being, Daisan Cotton, Japan). The test compounds were used at a concentration of 20 mg/mL in distilled water. From the data shown above, it can be seen that, among these compounds, 1-7 and 1-8 evoked cool/cold on zygomatic/forehead skin.

[3] = test system: forehead skin of human subjects; assay: Sebum secretion of forehead skin (Sebumeter); type: in vivo; conditions: 20 mg/mL on forehead, FIG. 2
Experimental: Sebum is an oily substance secreted by the sebaceous gland. These glands, attached to hair follicles, are abundant on the face and scalp. Increased secretion of sebum, for example during teenage years, and associated with androgen stimulation is associated with acne. […] Sebum secretion was measured here using a Sebumeter®, a standardized instrument based on a mat tape brought into contact with the skin, and then grease spot photometry [CK Electronic, Cologne, Germany].
In nine human subjects the baseline secretion of sebum was 188±19 μg/cm^2. […] This pharmacological effect has not been previously observed with Dapa-compounds such as 1-7. This was a new and unexpected observation.

[4] = test system: sebocytes; assay: Sebocyte viability, MTT assay; type: cell-based, human; conditions: for Sebocyte cell viability as % of controls (FIG. 3): concentrations in mM, 1-8 at 1 mM; for Activity relative to 1-8 in the MTT sebocyte assay: FIG. 4; for Sebocyte cell viability as % of controls (FIG. 4): at 0.10 μM
Experimental: (§1) The activities of 1-7 and 1-8 on an immortalized sebocyte cell line were examined in the laboratory of Prof Im Myung using methods previously described [Im et al. Epigallocatechin-3-gallate suppresses IGF-I-induced lipogenesis and cytokine expression in SZ95 sebocytes. J. Invest. Dermatol. 132, 2700-8 (2012)]. Proliferation of the sebocytes was measured using the MTT assay, by examination of micrographs of the cells in culture, and ^3H-thymidine incorporation. The effects of the test agents on lipogenesis were further studied by Oil Red O staining and analysis of the lipid composition of the cells. Studies were also conducted on signaling pathways for lipogenesis [PPAR and SREBP-1, Trivedi et al. Peroxisome proliferator-activated receptors increase human sebum production. J. Invest. Dermatol. 126, 2002-9 (2006)].
The MTT assay is a colorimetric assay for cell viability. MTT [3-(4,5-dimethylthiazol-2-yl)-2-5-diphenyltetrazolium bromide], a yellow tetra-azole dye, is reduced to purple formazan in living cells by NADPH-dependent oxidoreductase enzymes. When the number of viable cells decreases the amount of enzymatic activity and purple color decreases and this can be measured with a spectrophotometer.
(§2) 1-7 and 1-8 are sensory cooling agents on the skin and activators [agonists] of the TRPM8 ion channel protein. […] The indicators used for direct comparison were sebocyte viability measured in the MTT assay and then the ^3H-thymidine incorporation assay.

[5] = test system: sebocytes; assay: 3H-thymidine incorporation into sebocytes; type: cell-based, human; conditions: for activity at 10 µM: Homo sapiens, 3 h, uptake into sebocytes, NS = not significant
Experimental: as §1, §2

[6] = test system: human sebocytes; assay: Inhibition of sebocyte function in cultured human sebocytes (assay not specified); type: cell-based; conditions: for Inhibition of sebocyte function: 0.1mM
Experimental: as §1, §2

[7] = test system: sebocytes; assay: IGF-1 stimulated lipogenesis in sebocytes (Oil Red O, thin-layer and gas chromatography of lipids); type: cell-based, human
Experimental: as §1, with “132, 2700-8 (2012)].” left out, “Dermatol.” for “Dermatol. 126, 2002-9 (2006)].”
J. Invest. Dermatol. […] Oil Red 0 [Sudan Red 5B] is a diazo dye used for staining neutral triglycerides and lipids on cells.

[8] = test system: Peroxisome proliferator-activated receptors [PPAR]; assay: Marker of sebum production in sebocytes: PPAR; type: cell-based, human
Experimental: as §1
(§3) There are intracellular biochemical receptors and markers of sebocyte activation and sebum production. Peroxisome proliferator-activated receptors [PPAR] agonists increase sebum production in isolated sebocytes [Trivedi et al. (2006)]. This class of receptors is reduced after 1-8. Similarly, the […] which is linked to lipogenesis in sebocytes, was reduced by 1-8. These effects were specific to the markers of sebum production, as cellular receptors such as TRPM8 and actin were not affected by 1-8.

[9] = test system: sterol-response binding protein [SBEP-1]; assay: Marker of sebum production in sebocytes: SREBP-1; type: cell-based, human
Experimental: as §1, §3

[10] = test system: TRPM8 and actin; assay: Non-sebum cellular markers in sebocytes; type: cell-based, human
From the text: as §3

T1 sequence (Q7Z2W7 whole entry): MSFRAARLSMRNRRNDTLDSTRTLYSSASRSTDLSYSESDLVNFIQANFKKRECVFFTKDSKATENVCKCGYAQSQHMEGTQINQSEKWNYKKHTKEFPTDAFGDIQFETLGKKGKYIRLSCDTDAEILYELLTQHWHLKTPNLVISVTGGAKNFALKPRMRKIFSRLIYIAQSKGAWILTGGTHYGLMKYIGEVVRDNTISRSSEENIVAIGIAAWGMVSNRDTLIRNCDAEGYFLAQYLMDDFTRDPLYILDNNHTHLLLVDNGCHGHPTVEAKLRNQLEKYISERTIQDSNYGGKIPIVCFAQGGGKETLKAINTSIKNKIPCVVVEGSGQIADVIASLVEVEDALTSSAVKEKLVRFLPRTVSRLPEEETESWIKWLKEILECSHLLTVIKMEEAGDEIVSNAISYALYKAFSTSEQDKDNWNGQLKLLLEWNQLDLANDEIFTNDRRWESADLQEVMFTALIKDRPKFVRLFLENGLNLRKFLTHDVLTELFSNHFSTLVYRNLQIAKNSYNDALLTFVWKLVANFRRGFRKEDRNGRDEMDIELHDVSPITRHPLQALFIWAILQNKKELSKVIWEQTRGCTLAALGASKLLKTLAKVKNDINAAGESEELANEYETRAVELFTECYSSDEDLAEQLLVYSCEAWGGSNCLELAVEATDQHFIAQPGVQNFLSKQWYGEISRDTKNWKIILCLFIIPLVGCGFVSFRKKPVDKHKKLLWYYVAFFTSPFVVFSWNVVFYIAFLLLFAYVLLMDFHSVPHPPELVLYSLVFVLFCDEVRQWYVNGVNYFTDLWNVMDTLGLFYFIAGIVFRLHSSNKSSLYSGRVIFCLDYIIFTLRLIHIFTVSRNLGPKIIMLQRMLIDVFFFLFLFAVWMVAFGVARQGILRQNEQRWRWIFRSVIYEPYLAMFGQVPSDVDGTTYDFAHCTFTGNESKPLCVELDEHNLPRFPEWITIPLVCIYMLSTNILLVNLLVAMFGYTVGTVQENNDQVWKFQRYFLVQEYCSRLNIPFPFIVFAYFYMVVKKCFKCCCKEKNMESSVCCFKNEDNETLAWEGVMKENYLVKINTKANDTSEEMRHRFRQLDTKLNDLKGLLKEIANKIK

Relative Potency to I-menthol [1] | SMILES | Sensory Quality [2] | Duration [2] | Onset [2] | activity at 10 µM [5] | also measured
0.3 | CCCCP(=O)(C(C)CC)C(C)CC (stereo not shown) [Code 2-4, 1-disec-butylphosphorylbutane] | cool | 0.3 h | ~1 min |  | 
2.2 | CCCCCP(=O)(C(C)CC)C(C)CC (stereo not shown) [Code 2-5, 1-disec-butylphosphorylpentane] | cool | 1.1 h | ~1 min | ≥ 98% | 
4.7 | CCCCCCP(=O)(C(C)CC)C(C)CC (stereo not shown) [Code 2-6, 1-disec-butylphosphorylhexane] | cold | 1.5 h | ~2 min | ≥ 100% | Activity on sebocyte viability (structure-activity summary of Table 6) [4]: absence of activities
3.4 | CCCCCCCP(=O)(C(C)CC)C(C)CC (stereo not shown) [Code 2-7, 1-disec-butylphosphorylheptane] | cold | 2.4 h | ~2 min | ≥ 85% | Activity on sebocyte viability (structure-activity summary of Table 6) [4]: absence of activities
2.9 | CCCCCCCCP(=O)(C(C)CC)C(C)CC (stereo not shown) [Code 2-8, 1-disec-butylphosphoryloctane] | cold | 5.6 h | 5 min | ≥ 90% | Activity on sebocyte viability (structure-activity summary of Table 6) [4]: more activity than 2-6 or 2-7

Further lines, the compound ahead of its results:

SMILES | Relative Potency to I-menthol [1] | Sensory Quality [2] | Duration [2] | Onset [2] | activity at 10 µM [5] | also measured
CCCCCP(=O)(C(C)C)C(C)C [Code 1-5, 1-diisopropylphosphorylpentane] | 0.7 | dynamic | 0.5 h | ~1 min |  | 
CCCCCCP(=O)(C(C)C)C(C)C [Code 1-6, 1-diisopropylphosphorylhexane] | 1.6 | dynamic | 1.3 h | ~1 min |  | 
CCCCCCCP(=O)(C(C)C)C(C)C [Code 1-7, 1-diisopropylphosphorylheptane] | 5.4 | dynamic-icy | 3.2 h | ~1 min | ≥ 100% | Onset of cooling after application [2]: ≤ 1 min; Duration of localized cooling and refreshing sensations [2]: several hours; Sebum secretion after topical application [3]: significantly decreased; Sebocyte cell viability as % of controls (FIG. 3) [4]: did not inhibit; Inhibition of sebocyte function [6]: not seen
CCCCCCCCP(=O)(C(C)C)C(C)C [Code 1-8, 1-diisopropylphosphoryloctane] | 5.4 | cold-icy | 4.0 h | ~1 min | ≥ 78% | Duration of localized cooling and refreshing sensations [2]: several hours; Photomicrographs of sebocyte cultures ([4]; 0.1mM): patchy empty spaces; Sebocyte cell viability as % of controls (FIG. 3) [4]: strongly inhibited; IGF-1 induced increase of lipids in cells (Oil Red O photomicrograph) ([7]; IGF-1 50 ng/mL, 0.1mM): inhibited; Squalene and wax esters (thin-layer chromatography and gas-chromatography) ([7]; IGF-1 stimulated sebocytes): selectively decreased; PPAR level [8]: reduced; SBEP-1 level [9]: reduced; TRPM8 and actin levels [10]: not affected; Inhibition of sebocyte function [6]: potent inhibitor
CCCCCCCCCP(=O)(C(C)C)C(C)C [Code 1-9, 1-diisopropylphosphorylnonane] | 4.0 | cool | 2.0 h | ~2 min | ≥ 85% | Activity on sebocyte viability (structure-activity summary of Table 6) [4]: active
CCCCCCCCCCP(=O)(C(C)C)C(C)C [Code 1-10, 1-diisopropylphosphoryldecane] |  |  |  |  | ≥ 100% | Activity on TRPM8 [1]: low potency; Activity relative to 1-8 in the MTT sebocyte assay [4]: 10,000 x; Sebocyte cell viability as % of controls (FIG. 4) [4]: strongly inhibited; Levels / production of squalene (thin layer chromatography, FIG. 5) ([7]; IGF-1 stimulated sebocytes): lowers
CCCCCCCCCCCCP(=O)(C(C)C)C(C)C [Code 1-12, 1-diisopropylphosphoryldodecane] |  |  |  |  | ~40% | Activity on TRPM8 [1]: low potency; also recorded: very low activity; Activity relative to 1-8 in the MTT sebocyte assay [4]: 10,000 x; Sebocyte cell viability as % of controls (FIG. 4) [4]: strongly inhibited; Inhibition of 3H-thymidine incorporation into sebocytes [5]: clearly inhibited; Levels / production of squalene (thin layer chromatography, FIG. 5) ([7]; IGF-1 stimulated sebocytes): effective; also recorded: lowers; Concentration at which fully effective ([6]; sebocytes in culture): 0.01 µM
CC1=C(/C=C/C(C)=C/C=C/C(C)=C\C(=O)O)C(C)(C)CCC1 [cis-retinoic acid, reference compound] |  |  |  |  |  | IGF-1 increased lipids, gel staining (FIG. 5) ([7]; IGF-1 stimulated sebocytes): inhibited
CC1=C(/C=C/C(C)=C/C=C/C(C)=C/C(=O)O)C(C)(C)CCC1 [trans-retinoic acid, reference compound] |  |  |  |  |  | IGF-1 increased lipids, gel staining (FIG. 5) ([7]; IGF-1 stimulated sebocytes): inhibited
